Experimental data published in the kinase profiling compilation of Christmann-Franck et al. (2016).

Key:
Assay in all cases: radiometric filter-binding kinase assay, Kinase HotSpot
Settings in all cases: compound 0.5 µM; ATP 10 µM
[1] = biological target: MAP3K5 (human) (UniProt Q99683)
[2] = biological target: RPS6KB1 (human) (UniProt P23443)
[3] = biological target: PIM2 (human) (UniProt Q9P1W9)
[4] = biological target: BLK (human) (UniProt P51451)
[5] = biological target: CSNK1G2 (human) (UniProt P78368)
[6] = biological target: NEK3 (human) (UniProt P51956)
[7] = biological target: MAP3K9 (human) (UniProt P80192)
[8] = biological target: LTK (human) (UniProt P29376)
[9] = biological target: TAOK3 (human) (UniProt Q9H2K8)
[10] = biological target: ROS1 (human) (UniProt P08922)
[11] = biological target: PAK6 (human) (UniProt Q9NQU5)
[12] = biological target: FES (human) (UniProt P07332)
[13] = biological target: MST4 (human) (UniProt Q9P289)
[14] = biological target: BMX (human) (UniProt P51813)
[15] = biological target: FLT1 (human) (UniProt P17948)
[16] = biological target: DYRK1A (human) (UniProt Q13627)
[17] = biological target: TSSK1B (human) (UniProt Q9BXA7)
[18] = biological target: CDK1 CCNB1 (human) (UniProt P06493+P14635)
[19] = biological target: CDK3 CCNE1 (human) (UniProt Q00526+P24864)
[20] = biological target: CDK7 CCNH MNAT1 (human) (UniProt P50613+P51948+P51946)
[21] = biological target: MAP4K4 (human) (UniProt O95819)
[22] = biological target: EPHA1 (human) (UniProt P21709)
[23] = biological target: INSRR (human) (UniProt P14616)
[24] = biological target: CSNK1G3 (human) (UniProt Q9Y6M4)
[25] = biological target: PLK2 (human) (UniProt Q9NYY3)
[26] = biological target: RIPK2 (human) (UniProt O43353)
[27] = biological target: NEK4 (human) (UniProt P51957)
[28] = biological target: SRPK1 (human) (UniProt Q96SB4)
[29] = biological target: LRRK2 (human) (UniProt Q5S007)
[30] = biological target: DYRK4 (human) (UniProt Q9NR20)
[31] = biological target: STK10 (human) (UniProt O94804)
[32] = biological target: DMPK (human) (UniProt Q09013)
[33] = biological target: GRK5 (human) (UniProt P34947)
[34] = biological target: MAPK8 (human) (UniProt P45983)
[35] = biological target: PRKCI (human) (UniProt P41743)
[36] = biological target: IGF1R (human) (UniProt P08069)
[37] = biological target: AURKC (human) (UniProt Q9UQB9)
[38] = biological target: GRK6 (human) (UniProt P43250)
[39] = biological target: BTK (human) (UniProt Q06187)
[40] = biological target: RAF1 (human) (UniProt P04049)

LTK (human), sequence (P29376 whole entry, looked up): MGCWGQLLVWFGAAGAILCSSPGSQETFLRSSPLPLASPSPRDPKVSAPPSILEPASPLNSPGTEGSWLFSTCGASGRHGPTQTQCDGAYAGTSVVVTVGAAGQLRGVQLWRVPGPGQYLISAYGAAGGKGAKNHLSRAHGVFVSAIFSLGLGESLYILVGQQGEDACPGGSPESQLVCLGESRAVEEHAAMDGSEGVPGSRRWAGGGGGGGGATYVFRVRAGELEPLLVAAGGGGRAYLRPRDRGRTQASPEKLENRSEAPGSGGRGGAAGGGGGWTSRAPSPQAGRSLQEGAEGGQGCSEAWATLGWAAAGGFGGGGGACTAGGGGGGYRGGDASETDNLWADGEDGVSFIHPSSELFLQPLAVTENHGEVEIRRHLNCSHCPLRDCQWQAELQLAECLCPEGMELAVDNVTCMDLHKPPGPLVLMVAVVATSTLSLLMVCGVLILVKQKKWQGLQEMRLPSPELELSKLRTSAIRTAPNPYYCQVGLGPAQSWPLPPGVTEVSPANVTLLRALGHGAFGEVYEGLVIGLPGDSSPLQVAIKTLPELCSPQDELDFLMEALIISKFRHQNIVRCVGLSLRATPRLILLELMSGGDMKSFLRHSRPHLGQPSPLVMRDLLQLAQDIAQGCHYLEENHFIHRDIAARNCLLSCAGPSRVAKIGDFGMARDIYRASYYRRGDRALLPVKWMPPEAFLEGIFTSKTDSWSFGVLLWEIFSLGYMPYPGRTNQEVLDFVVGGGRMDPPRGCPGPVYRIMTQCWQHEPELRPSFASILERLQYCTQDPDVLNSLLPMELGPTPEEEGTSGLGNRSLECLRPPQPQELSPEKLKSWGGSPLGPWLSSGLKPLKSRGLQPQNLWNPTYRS
BLK (human), sequence (P51451 whole entry, looked up): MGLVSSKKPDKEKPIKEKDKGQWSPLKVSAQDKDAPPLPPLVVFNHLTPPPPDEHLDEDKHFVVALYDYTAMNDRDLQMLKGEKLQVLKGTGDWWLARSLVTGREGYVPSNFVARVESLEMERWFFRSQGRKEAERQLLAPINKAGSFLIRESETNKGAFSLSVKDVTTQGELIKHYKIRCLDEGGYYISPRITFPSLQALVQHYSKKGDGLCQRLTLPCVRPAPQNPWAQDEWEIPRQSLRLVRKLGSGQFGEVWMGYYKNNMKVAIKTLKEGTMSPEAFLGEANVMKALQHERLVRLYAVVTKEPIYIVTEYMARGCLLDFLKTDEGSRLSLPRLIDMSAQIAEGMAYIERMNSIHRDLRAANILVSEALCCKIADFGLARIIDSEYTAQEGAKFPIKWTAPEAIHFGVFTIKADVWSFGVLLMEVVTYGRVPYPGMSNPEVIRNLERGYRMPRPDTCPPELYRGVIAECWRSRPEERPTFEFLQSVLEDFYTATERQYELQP
PLK2 (human), sequence (Q9NYY3 whole entry, looked up): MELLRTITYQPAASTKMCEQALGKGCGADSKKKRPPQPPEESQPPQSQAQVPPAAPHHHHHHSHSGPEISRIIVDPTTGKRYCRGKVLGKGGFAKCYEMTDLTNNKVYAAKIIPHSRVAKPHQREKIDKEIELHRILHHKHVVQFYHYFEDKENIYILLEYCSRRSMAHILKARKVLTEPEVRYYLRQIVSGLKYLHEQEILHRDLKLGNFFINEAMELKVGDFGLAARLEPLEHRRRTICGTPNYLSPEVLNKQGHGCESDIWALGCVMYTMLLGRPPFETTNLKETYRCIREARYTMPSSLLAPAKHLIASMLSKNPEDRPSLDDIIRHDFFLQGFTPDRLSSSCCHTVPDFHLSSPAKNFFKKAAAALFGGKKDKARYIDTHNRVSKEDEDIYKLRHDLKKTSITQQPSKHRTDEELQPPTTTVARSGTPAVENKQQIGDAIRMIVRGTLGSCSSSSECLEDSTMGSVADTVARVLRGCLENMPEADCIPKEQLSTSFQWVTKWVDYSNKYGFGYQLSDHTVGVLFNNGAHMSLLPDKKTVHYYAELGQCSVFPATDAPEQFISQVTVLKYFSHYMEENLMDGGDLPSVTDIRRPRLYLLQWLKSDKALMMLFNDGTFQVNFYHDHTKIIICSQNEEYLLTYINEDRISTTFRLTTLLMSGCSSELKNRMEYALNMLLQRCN
EPHA1 (human), sequence (P21709 whole entry, looked up): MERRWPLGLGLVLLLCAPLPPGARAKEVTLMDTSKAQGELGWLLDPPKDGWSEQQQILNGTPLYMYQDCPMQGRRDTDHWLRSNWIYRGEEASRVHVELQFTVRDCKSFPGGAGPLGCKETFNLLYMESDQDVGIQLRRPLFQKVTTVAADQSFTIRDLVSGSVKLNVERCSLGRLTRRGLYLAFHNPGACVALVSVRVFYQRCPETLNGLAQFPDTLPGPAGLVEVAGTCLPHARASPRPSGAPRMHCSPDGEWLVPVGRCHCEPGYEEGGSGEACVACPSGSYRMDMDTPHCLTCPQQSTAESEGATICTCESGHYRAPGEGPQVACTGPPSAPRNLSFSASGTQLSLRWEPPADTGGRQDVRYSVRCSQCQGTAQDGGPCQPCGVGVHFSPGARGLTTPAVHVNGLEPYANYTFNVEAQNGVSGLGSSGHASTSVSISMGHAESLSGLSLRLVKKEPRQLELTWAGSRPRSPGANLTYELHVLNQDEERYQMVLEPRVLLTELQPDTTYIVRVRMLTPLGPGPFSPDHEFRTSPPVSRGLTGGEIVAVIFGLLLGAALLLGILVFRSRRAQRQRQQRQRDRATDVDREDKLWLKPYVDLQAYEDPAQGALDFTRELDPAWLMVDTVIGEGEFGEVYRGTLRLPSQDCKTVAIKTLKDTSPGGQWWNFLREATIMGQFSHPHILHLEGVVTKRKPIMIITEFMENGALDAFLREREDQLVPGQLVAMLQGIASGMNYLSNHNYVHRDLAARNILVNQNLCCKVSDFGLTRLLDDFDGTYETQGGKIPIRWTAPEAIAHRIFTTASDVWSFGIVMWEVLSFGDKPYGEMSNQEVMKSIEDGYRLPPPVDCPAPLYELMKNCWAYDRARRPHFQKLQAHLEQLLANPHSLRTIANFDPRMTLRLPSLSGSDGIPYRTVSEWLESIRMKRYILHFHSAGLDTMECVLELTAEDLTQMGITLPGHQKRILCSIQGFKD
PAK6 (human), sequence (Q9NQU5 whole entry, looked up): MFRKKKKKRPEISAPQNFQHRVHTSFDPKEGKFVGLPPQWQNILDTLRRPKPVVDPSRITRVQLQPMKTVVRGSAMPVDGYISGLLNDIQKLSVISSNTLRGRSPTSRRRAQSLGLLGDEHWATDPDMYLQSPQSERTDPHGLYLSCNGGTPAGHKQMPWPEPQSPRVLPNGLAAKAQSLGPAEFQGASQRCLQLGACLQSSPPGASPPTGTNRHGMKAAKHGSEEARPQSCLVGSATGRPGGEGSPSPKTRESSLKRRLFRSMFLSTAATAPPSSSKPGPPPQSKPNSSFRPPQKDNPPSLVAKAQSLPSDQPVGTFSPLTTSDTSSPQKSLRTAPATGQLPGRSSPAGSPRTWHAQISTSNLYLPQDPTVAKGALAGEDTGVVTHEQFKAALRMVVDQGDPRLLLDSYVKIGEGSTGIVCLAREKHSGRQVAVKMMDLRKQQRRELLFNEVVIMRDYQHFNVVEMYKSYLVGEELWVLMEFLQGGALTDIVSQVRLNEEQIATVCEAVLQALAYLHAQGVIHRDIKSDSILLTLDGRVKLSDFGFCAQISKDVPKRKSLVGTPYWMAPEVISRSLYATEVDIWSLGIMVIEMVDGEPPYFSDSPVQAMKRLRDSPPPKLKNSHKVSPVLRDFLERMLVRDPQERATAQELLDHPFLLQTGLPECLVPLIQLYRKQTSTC
FLT1 (human), sequence (P17948 whole entry, looked up): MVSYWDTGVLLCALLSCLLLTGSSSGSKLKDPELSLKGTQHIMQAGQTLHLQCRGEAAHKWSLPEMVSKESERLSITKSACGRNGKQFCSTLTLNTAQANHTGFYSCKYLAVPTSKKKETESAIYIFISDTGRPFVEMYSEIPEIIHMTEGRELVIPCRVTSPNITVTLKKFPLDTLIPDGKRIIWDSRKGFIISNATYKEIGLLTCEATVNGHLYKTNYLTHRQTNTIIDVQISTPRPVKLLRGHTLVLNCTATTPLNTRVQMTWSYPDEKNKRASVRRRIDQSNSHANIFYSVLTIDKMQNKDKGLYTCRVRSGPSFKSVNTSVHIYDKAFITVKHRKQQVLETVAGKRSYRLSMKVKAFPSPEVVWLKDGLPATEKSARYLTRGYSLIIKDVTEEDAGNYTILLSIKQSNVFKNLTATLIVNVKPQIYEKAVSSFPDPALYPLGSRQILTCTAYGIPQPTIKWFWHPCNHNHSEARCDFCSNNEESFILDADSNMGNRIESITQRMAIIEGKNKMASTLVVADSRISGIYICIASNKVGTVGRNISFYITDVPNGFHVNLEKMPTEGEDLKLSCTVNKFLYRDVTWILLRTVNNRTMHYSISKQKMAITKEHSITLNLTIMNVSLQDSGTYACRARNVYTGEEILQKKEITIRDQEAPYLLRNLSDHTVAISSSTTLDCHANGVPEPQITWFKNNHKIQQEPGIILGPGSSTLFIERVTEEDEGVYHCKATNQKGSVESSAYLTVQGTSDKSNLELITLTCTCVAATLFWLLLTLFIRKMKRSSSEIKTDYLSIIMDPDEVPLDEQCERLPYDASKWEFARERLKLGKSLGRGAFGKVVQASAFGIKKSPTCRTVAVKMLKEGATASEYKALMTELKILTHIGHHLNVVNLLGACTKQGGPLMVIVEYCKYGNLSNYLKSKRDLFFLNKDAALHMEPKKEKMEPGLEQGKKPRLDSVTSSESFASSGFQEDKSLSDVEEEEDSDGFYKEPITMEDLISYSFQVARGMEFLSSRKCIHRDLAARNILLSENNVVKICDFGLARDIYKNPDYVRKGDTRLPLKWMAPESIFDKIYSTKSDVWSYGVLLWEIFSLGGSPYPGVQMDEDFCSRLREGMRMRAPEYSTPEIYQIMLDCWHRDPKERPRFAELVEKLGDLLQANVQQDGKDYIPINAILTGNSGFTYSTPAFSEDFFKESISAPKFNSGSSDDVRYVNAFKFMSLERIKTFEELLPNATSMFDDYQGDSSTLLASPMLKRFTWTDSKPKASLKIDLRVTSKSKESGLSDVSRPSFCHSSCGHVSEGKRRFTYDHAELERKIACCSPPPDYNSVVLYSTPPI

CNC(=O)c1cc(Oc2ccc(NC(=O)Nc3ccc(Cl)c(C(F)(F)F)c3)cc2)ccn1
residual activity [1]: 103%
residual activity [2]: 91.4%
residual activity [3]: 103%
residual activity [4]: 99.1%
residual activity [5]: 88.9%
residual activity [6]: 97.2%
residual activity [7]: 103%
residual activity [8]: 99.9%
residual activity [9]: 63.5%
residual activity [10]: 95.7%
residual activity [11]: 104%
residual activity [12]: 104%
residual activity [13]: 101%
residual activity [14]: 93.3%
residual activity [15]: 50.5%
residual activity [16]: 103%
residual activity [17]: 98.7%
residual activity [18]: 98.5%
residual activity [19]: 96.5%
residual activity [20]: 102%
residual activity [21]: 96.1%
residual activity [22]: 87.7%
residual activity [23]: 104%
residual activity [24]: 99.8%
residual activity [25]: 101%
residual activity [26]: 86.2%
residual activity [27]: 99.5%
residual activity [28]: 98.6%
residual activity [29]: 106%
residual activity [30]: 105%
residual activity [31]: 72.4%
residual activity [32]: 93.2%
residual activity [33]: 97.8%
residual activity [34]: 92.8%
residual activity [35]: 89.9%
residual activity [36]: 94.3%
residual activity [37]: 106%
residual activity [38]: 107%
residual activity [39]: 102%

Cc1ccc(Nc2nccc(N(C)c3ccc4c(C)n(C)nc4c3)n2)cc1S(N)(=O)=O
residual activity [1]: 102%
residual activity [2]: 96%
residual activity [3]: 101%
residual activity [4]: 75.6%
residual activity [5]: 96.9%
residual activity [6]: 94.2%
residual activity [7]: 10.6%
residual activity [8]: 80.2%
residual activity [9]: 55.5%
residual activity [10]: 17%
residual activity [11]: 105%
residual activity [13]: 108%
residual activity [14]: 93.4%
residual activity [15]: 27.2%
residual activity [17]: 99%
residual activity [18]: 99.6%
residual activity [19]: 93.5%
residual activity [20]: 103%
residual activity [21]: 77.4%
residual activity [22]: 85%
residual activity [23]: 96.1%
residual activity [24]: 97.1%
residual activity [25]: 101%
residual activity [26]: 68.2%
residual activity [27]: 91.1%
residual activity [28]: 100%
residual activity [29]: 109%
residual activity [30]: 106%
residual activity [31]: 50.1%
residual activity [32]: 93.5%
residual activity [40]: 9.43%
residual activity [33]: 99.6%
residual activity [35]: 96.1%
residual activity [37]: 70.9%
residual activity [38]: 102%
residual activity [39]: 78.8%

CCN(CC)CCNC(=O)c1c(C)[nH]c(/C=C2\C(=O)Nc3ccc(F)cc32)c1C
residual activity [1]: 100%
residual activity [2]: 42.3%
residual activity [3]: 97.2%
residual activity [4]: 28.7%
residual activity [6]: 91.6%
residual activity [8]: 34.4%
residual activity [9]: 82.9%
residual activity [10]: 71.6%
residual activity [11]: 107%
residual activity [13]: 110%
residual activity [14]: 99%
residual activity [15]: 58.7%
residual activity [16]: 56.9%
residual activity [17]: 20.7%
residual activity [18]: 103%
residual activity [19]: 91%
residual activity [20]: 73.4%
residual activity [21]: 12.4%
residual activity [22]: 95.1%
residual activity [23]: 21.7%
residual activity [25]: 99.2%
residual activity [26]: 104%
residual activity [27]: 94.1%
residual activity [28]: 97%
residual activity [29]: 3.34%
residual activity [30]: 104%
residual activity [31]: 31.2%
residual activity [32]: 97.7%
residual activity [40]: 110%
residual activity [34]: 91.8%
residual activity [35]: 103%
residual activity [36]: 62.6%
residual activity [37]: 72.8%
residual activity [38]: 74.7%
residual activity [39]: 50.2%
